Experiments:
Assay type in all cases: in vivo
rice (Oryza sativa) = test: Test C flooded paddy test plant response; conditions: Flood, 250 g ai/ha; scale of 0 to 100 where 0 is no effect and 100 is complete control; 13 to 15 days
Outline: (§1)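 Scored visually on a 0–100 scale (100 = complete control) against untreated plants 13 to 15 days after treatment in the greenhouse. Compounds went into paddy water of pots flooded to 3 cm, holding 2-leaf-stage plants.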

[1] = system: barnyardgrass (Echinochloa crus-galli); test: Test C flooded paddy test plant response; conditions: Flood, 250 g ai/ha; scale of 0 to 100 where 0 is no effect and 100 is complete control; 13 to 15 days
Outline: as §1

[2] = system: small-flower umbrella sedge (Cyperus difformis); test: Test C flooded paddy test plant response; conditions: Flood, 250 g ai/ha; scale of 0 to 100 where 0 is no effect and 100 is complete control; 13 to 15 days
Outline: as §1

[3] = system: ducksalad (Heteranthera limosa); test: Test C flooded paddy test plant response; conditions: Flood, 250 g ai/ha; scale of 0 to 100 where 0 is no effect and 100 is complete control; 13 to 15 days
Outline: as §1

[4] = system: morningglory (Ipomoea spp.); test: Test B pre-/postemergence plant response
Outline: (§2)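 Steps: plant seeds in loam soil–sand mix; spray soil preemergence, and in parallel spray 2–10 cm one- to two-leaf plants postemergence; hold ~10 days in greenhouse; visually rate injury against untreated controls (0 = no effect, 100 = complete control).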

[5] = system: velvetleaf (Abutilon theophrasti); test: Test B pre-/postemergence plant response
Outline: as §2

[6] = system: barnyardgrass (Echinochloa crus-galli); test: Test B pre-/postemergence plant response
Outline: as §2

[7] = system: giant foxtail (Setaria faberii); test: Test B pre-/postemergence plant response
Outline: as §2

[8] = system: wheat (Triticum aestivum); test: Test B pre-/postemergence plant response
Outline: as §2

[9] = system: pigweed (Amaranthus retroflexus); test: Test B pre-/postemergence plant response
Outline: as §2

corn (Zea mays) = test: Test B pre-/postemergence plant response
Outline: as §2

[10] = system: large (Lg) crabgrass (Digitaria sanguinalis); test: Test B pre-/postemergence plant response
Outline: as §2

[11] = 125 g ai/ha, postemergence, 0 to 100 scale, 0 no effect, 100 complete control
[12] = Postemergence, 500 g ai/ha, 0 to 100 scale (0 no effect, 100 complete control)
[13] = Preemergence, 125 g ai/ha, 0 to 100 scale (0 no effect, 100 complete control)
[14] = Preemergence, 500 g ai/ha, 0 to 100 scale where 0 is no effect and 100 is complete control

SMILES	Rice plant response rating (rice (Oryza sativa))	Barnyardgrass plant response rating [1]	Sedge, Umbrella plant response rating [2]	Ducksalad plant response rating [3]	Plant response rating, Morningglory [4, 12]	Plant response rating, Morningglory [4, 14]	Plant response rating, Velvetleaf [5, 12]	Plant response rating, Velvetleaf [5, 14]	Plant response rating, Barnyardgrass [6, 12]	Plant response rating, Barnyardgrass [6, 14]	Plant response rating, Foxtail, Giant [7, 12]	Plant response rating, Foxtail, Giant [7, 14]	Plant response rating, Wheat [8, 12]	Plant response rating, Wheat [8, 14]	Plant response rating, Pigweed [9, 12]	Plant response rating, Pigweed [9, 14]	Plant response rating, Corn (corn (Zea mays); [12])	Plant response rating, Corn (corn (Zea mays); [14])	Plant response rating, Crabgrass, Large [10, 12]	Plant response rating, Crabgrass, Large [10, 14]	further results
Cc1noc(C)c1-c1c(C#N)cccc1Oc1ncc(Cl)cn1 [Compound 134]	0	0	75	40	90	80	90	100	90	90	90	100	30	20	100	100	80	60	100	100	Plant response rating, Morningglory [4, 11]: 10; Morningglory plant response rating [4, 13]: 10; Plant response rating, Velvetleaf [5, 11]: 40; Velvetleaf plant response rating [5, 13]: 40; Plant response rating, Barnyardgrass [6, 11]: 20; Barnyardgrass plant response rating [6, 13]: 70; Plant response rating, Foxtail, Giant [7, 11]: 10; Foxtail, Giant plant response rating [7, 13]: 90; Plant response rating, Wheat [8, 11]: 10; Wheat plant response rating [8, 13]: 20; Plant response rating, Pigweed [9, 11]: 60; Pigweed plant response rating [9, 13]: 100; Plant response rating, Corn (corn (Zea mays); [11]): 10; Corn plant response rating (corn (Zea mays); [13]): 20; Plant response rating, Crabgrass, Large [10, 11]: 10; Crabgrass, Large plant response rating [10, 13]: 100
Clc1ccc(-c2c(Br)cccc2Oc2ncc(Cl)cn2)nc1 [Compound 135]	0	0	0	0	50	10	80	60	40	60	60	100	10	0	100	100	30	0	50	100	Plant response rating, Morningglory [4, 11]: 20; Morningglory plant response rating [4, 13]: 0; Plant response rating, Velvetleaf [5, 11]: 40; Velvetleaf plant response rating [5, 13]: 20; Plant response rating, Barnyardgrass [6, 11]: 10; Barnyardgrass plant response rating [6, 13]: 10; Plant response rating, Foxtail, Giant [7, 11]: 10; Foxtail, Giant plant response rating [7, 13]: 60; Plant response rating, Wheat [8, 11]: 0; Wheat plant response rating [8, 13]: 0; Plant response rating, Pigweed [9, 11]: 100; Pigweed plant response rating [9, 13]: 90; Plant response rating, Corn (corn (Zea mays); [11]): 10; Corn plant response rating (corn (Zea mays); [13]): 0; Plant response rating, Crabgrass, Large [10, 11]: 10; Crabgrass, Large plant response rating [10, 13]: 80
Cn1nc(C(F)(F)F)cc1-c1c(C#N)cccc1Oc1ncc(Cl)cn1 [Compound 136]	0	0	40	40	90	90	100	100	90	100	80	100	40	30	100	100	70	40	90	100	–
